Results taken from ChEMBL document CHEMBL1152737, “Synthesis and biological evaluation of fused thio- and selenopyrans as new indolocarbazole analogues with aryl hydrocarbon receptor affinity” (Bioorg Med Chem, 2009).

These compounds were tested on Aryl hydrocarbon receptor (Cavia porcellus) (assay: Activation of AhR expressed in guinea pig cytosolic fractions over expressed with XRE by ELISA based Ah-immunoassay relative to TCDD).

Row | SMILES | Activity
1 | c1ccc2c3cc4c([nH]c5ccccc54)[se]c-3nc2c1 | 0.32
2 | COc1ccc2nc3[se]c4[nH]c5ccc(OC)cc5c4cc-3c2c1 | 0.009
3 | c1ccc2c(c1)[nH]c1cc3c(cc12)[nH]c1ccccc13 | 1.48
4 | COc1ccc2nc3[se]c4[nH]c5ccc(OC)cc5c4c(C)c-3c2c1 | 0.013
5 | Cc1c2c3ccccc3nc-2[se]c2[nH]c3ccccc3c12 | 0.38
6 | C1=Cc2sc3ccccc3c2Sc2c1sc1ccccc21 | 0.055
7 | C1=Cc2sc3ccccc3c2[Se]c2c1sc1ccccc21 | 0.018

The next lines start with the values.

Row | Activity | SMILES
8 | 0.132 | c1ccc2c3cc4[nH]c5ccccc5c4sc-3nc2c1
9 | 0.0033 | CC1(C)c2c([nH]c3ccccc23)Sc2[nH]c3ccccc3c21
10 | 0.29 | c1ccc2c3cc4c([nH]c5ccccc54)sc-3nc2c1
11 | 0.36 | Cc1c2c3ccccc3nc-2sc2[nH]c3ccccc3c12
12 | 0.039 | O=c1c2c([nH]c3ccccc32)sc2[nH]c3ccccc3c12
